Test results taken from patent US20030215462A1, “Use of UGT inhibitors to increase bioavailability” (priority 2001, published 2003).

Key:
[1] = Glucuronidation of UGT substrates by human liver microsomes; settings: human, human liver microsomes, pH 7.5
[2] = system: human liver microsomes; experiment: as above; settings: for 7-HFC glucuronidation rate: 100 μg/ml protein, 1 mM UDPGA, 15 min
[3] = target: T1, UGT1A6 (Homo sapiens, UniProt P19224); experiment: Substrate glucuronidation by recombinant UGT1A6; settings: for 7-HFC glucuronidation rate: 7-HFC 50 μM
T1 sequence (P19224 27-532): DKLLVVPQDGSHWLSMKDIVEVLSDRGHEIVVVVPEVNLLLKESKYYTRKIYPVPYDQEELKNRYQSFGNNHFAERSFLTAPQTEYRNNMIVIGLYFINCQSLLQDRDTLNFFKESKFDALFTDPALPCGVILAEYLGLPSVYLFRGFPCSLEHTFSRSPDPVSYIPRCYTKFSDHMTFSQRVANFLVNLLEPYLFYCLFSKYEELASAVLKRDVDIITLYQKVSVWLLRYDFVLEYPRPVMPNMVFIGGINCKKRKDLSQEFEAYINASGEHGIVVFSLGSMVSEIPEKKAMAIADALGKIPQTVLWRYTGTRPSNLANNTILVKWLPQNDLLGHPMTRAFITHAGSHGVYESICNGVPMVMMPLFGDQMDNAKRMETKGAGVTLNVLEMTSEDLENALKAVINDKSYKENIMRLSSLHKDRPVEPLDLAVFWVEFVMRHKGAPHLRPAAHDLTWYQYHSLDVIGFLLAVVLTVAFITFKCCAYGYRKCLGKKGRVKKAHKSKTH

[4] = target: T2, UGT1A8 (Homo sapiens, UniProt Q9HAW9); experiment: Substrate glucuronidation by recombinant UGT1A8; settings: UGT1A8 Supersomes 250 μg/ml; 7-HFC 50 μM
T2 sequence (Q9HAW9 26-530): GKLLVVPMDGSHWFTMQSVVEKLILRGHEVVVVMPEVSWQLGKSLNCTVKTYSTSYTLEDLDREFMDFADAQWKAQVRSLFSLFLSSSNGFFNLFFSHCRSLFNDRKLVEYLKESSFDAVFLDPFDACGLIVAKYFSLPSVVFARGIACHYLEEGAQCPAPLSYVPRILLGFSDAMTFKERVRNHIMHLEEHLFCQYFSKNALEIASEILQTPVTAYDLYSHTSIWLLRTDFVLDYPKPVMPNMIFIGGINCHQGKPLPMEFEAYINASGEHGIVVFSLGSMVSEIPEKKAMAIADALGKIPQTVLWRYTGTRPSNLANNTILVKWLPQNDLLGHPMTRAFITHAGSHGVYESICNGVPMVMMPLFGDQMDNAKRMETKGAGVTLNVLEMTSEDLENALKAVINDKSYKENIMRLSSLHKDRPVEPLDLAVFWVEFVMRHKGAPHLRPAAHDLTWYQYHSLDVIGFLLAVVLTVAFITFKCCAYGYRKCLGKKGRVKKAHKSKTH

[5] = system: UGT enzymes of pooled human jejunum microsomes; experiment: Inhibition of zidovudine glucuronidation in pooled human jejunum microsomes; type: biochemical; settings: inhibitor 50 μM
Protocol: Increasing the microsomal protein concentration to 1 mg/ml and extending the incubation time to 60 min provided meaningful metabolite levels for inhibition studies.

[6] = target: T3, UGT1A10 (Homo sapiens, UniProt Q9HAW8)
T3 sequence (Q9HAW8 26-530): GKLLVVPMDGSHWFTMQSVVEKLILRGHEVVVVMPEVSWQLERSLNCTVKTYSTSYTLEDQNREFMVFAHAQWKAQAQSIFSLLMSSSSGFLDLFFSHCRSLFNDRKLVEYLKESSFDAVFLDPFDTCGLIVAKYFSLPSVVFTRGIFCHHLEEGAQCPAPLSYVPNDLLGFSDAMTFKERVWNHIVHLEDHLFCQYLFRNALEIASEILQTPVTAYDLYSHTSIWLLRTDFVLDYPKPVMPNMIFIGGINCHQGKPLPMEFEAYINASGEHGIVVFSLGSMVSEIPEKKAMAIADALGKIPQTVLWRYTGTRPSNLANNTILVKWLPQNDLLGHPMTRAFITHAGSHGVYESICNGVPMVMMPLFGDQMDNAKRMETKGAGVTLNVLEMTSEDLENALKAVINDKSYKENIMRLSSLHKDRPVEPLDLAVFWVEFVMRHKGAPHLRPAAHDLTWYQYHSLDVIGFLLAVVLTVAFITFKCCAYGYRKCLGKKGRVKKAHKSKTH

[7] = target: UGT1A4 (Homo sapiens, UniProt P22310)
[8] = target: T4, UGT1A3 (Homo sapiens, UniProt P35503)
T4 sequence (P35503 29-534): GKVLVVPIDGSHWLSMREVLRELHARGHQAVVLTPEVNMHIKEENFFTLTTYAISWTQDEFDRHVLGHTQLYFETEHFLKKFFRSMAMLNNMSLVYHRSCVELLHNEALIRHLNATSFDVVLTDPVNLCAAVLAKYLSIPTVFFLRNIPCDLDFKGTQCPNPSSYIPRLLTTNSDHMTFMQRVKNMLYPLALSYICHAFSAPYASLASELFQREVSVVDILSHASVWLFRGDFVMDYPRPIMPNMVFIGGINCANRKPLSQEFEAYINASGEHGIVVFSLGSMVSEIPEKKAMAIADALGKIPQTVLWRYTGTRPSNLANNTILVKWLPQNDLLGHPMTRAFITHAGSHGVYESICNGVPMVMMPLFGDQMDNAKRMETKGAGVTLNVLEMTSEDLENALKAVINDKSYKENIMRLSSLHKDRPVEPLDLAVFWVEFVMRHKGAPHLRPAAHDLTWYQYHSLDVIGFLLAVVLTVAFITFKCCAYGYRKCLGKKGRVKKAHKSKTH

[9] = system: UGT enzymes of human liver microsomes; experiment: Inhibition of zidovudine glucuronidation in human liver microsomes; type: biochemical
Protocol: Compounds were eluted using a binary solvent gradient system where solvent A was dilute phosphoric acid (pH 3) and solvent B was acetonitrile.
Standardized incubations utilized 500 μM zidovudine substrate, 1 mg/ml microsomal protein, 5 mM UDPGA and a 30 min incubation time. […] Int.

Chain of UGT1A4 (P22310 29-534): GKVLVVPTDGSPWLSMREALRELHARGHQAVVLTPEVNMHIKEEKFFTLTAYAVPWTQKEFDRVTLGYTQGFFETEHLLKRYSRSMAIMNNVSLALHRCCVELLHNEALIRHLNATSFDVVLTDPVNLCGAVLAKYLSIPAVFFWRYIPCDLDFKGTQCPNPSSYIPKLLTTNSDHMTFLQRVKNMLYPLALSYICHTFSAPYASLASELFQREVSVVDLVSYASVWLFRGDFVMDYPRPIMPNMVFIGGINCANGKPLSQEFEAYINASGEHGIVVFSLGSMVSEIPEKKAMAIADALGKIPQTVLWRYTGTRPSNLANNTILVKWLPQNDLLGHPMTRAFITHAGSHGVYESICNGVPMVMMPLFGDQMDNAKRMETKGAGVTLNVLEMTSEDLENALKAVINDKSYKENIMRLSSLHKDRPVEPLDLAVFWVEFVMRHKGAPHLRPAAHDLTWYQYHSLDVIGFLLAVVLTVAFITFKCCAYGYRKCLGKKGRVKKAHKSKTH

SMILES: O=c1cc(C(F)(F)F)c2ccc(O)cc2o1 [7-HFC, 7-hydroxy-4-(trifluoromethyl)coumarin]
- Km at 15 min [1]: 85 µM
- 7-HFC glucuronidation rate in human liver microsomes, times higher than UGT1A6 Supersomes [2]: 6 times
- 7-HFC metabolism rate ([2]; human liver microsomes (table footnote)): 26,405 ± 272 pmol/min/mg
- 7-HFC glucuronidation rate ([2]; liver microsome lot 032101): 29,907±562 pmol/min/mg
- 7-HFC glucuronidation rate ([2]; liver microsome lot 062101): 33,039±493 pmol/min/mg
- 7-HFC glucuronidation rate ([2]; liver microsome lot 062900): 26,405±272 pmol/min/mg
- mean apparent Vmax for 7-HFC glucuronidation ([2]; microsome lot 062900, substrate 20-500 μM): 60 nmol/min/mg microsomal protein
- 7-HFC glucuronidation rate in Panvera Bacculosomes as % of Gentest Supersomes ([3]; UGT1A6): 31%
- 7-HFC glucuronidation rate ([3]; UGT1A6 Bacculosomes 250 μg/ml): 1528 ± 34 pmol/min/mg protein
- 7-HFC glucuronidation rate ([3]; UGT1A6 Supersomes 250 μg/ml): 4904 ± 368 pmol/min/mg protein
- 7-HFC glucuronidation rate [4]: 486 ± 5 pmol/min/mg protein

SMILES: CC/C(=C(/CC)c1ccc(O)cc1)c1ccc(O)cc1 [Diethylstilbestrol, reference compound]
- residual metabolism (percentage of control), zidovudine [5]: 42 (3) %

SMILES: CC(CCc1ccccc1)NCC(O)c1ccc(O)c(C(N)=O)c1 (stereo not shown) [Labetalol, labetalol]
- labetalol metabolism, in words [6]: No detectable metabolism was observed
- labetalol metabolism, in words [7]: No detectable metabolism was observed
- labetalol metabolism, in words [8]: No detectable metabolism was observed

SMILES: O=c1c(O)c(-c2ccc(O)c(O)c2)oc2cc(O)cc(O)c12 [Quercetin]
- inhibition of zidovudine metabolism, in words [9]: ineffective
